In assay [1] the target is T1, SARS-CoV-2 PLpro (nsp3 1564–1878) (Severe acute respiratory syndrome coronavirus 2, UniProt P0DTD1). As to the kind of experiment: biochemical. More on the design: FRET-quenched peptide (Pro3) cleavage by PLpro, 10 min pre-incubation, slope over 20 min, normalised to no-compound control. The following applies: read-out: % of control remaining.
In assay [2] the target is T1, SARS-CoV-2 PLpro (nsp3 1564–1878). As to the kind of experiment: biochemical. More on the design: FRET-quenched peptide (Pro3) cleavage by PLpro, 10 min pre-incubation, slope over 20 min, normalised to no-compound control. The following applies: read-out: % of control remaining. The source holds these as a separate data set.

Where a name gives a salt, the structure may show the parent alone. Read-outs that look alike come from different tables or passages of the source.

As to `COc1cc([C@@H]2c3cc4c(cc3[C@@H](O[C@@H]3O[C@@H]5CO[C@@H](C)O[C@H]5[C@H](O)[C@H]3O)[C@H]3COC(=O)[C@H]23)OCO4)cc(OC)c1O` [Etoposide], the remaining activity at 1.25 µM in assay [1] (Well no.=454, low concentration screen) came to 103%; in assay [1] (Well no.=1670, low concentration screen) it was 99.8%; in assay [1] (Well no.=6154, low concentration screen), 102%. Further, the remaining activity at 3.75 µM in assay [2] (Well no.=454, high concentration screen) was 97.1%; in assay [2] (Well no.=1670, high concentration screen) it was 99.3%; in assay [2] (Well no.=3279, high concentration screen) it was 102%; in assay [2] (Well no.=6154, high concentration screen), 103%.

For `CC(=O)OCC(=O)[C@@]12OC(C)(C)O[C@@H]1C[C@H]1[C@@H]3C[C@H](F)C4=CC(=O)C=C[C@]4(C)[C@@]3(F)[C@@H](O)C[C@@]12C` [Fluocinonide], the remaining activity at 1.25 µM in assay [1] (Well no.=6805, low concentration screen) is 98.5%. Further, the remaining activity at 3.75 µM in assay [2] (Well no.=6805, high concentration screen) came to 99.9%.

As to `CCCCN1CCC(CNC(=O)c2c3n(c4ccccc24)CCCO3)CC1` [Piboserod], in assay [1] (Well no.=7965, low concentration screen), the remaining activity at 1.25 µM is 93.1%. In addition, the remaining activity at 3.75 µM in assay [2] (Well no.=7965, high concentration screen) came out at 93.6%.

On to `O=c1cc(-c2ccc(O)cc2)oc2cc(O)cc(O)c12` [Apigenin], for which the remaining activity at 1.25 µM in assay [1] (Well no.=299, low concentration screen) is 93.8%; in assay [1] (Well no.=3234, low concentration screen) it was 99.1%; in assay [1] (Well no.=3909, low concentration screen), 101%. Also, the remaining activity at 3.75 µM stood at 93.2% in assay [2] (Well no.=299, high concentration screen); 94.9% in assay [2] (Well no.=3234, high concentration screen); 96.7% in assay [2] (Well no.=3909, high concentration screen).

For the molecule `CCCc1cc(=O)oc2c(C(=O)N3CCCc4ccccc43)c(OC)cc(OC)c12` [BNS-22], the remaining activity at 1.25 µM in assay [1] (Well no.=5907, low concentration screen) turned out to be 101%. Moreover, the remaining activity at 3.75 µM in assay [2] (Well no.=5907, high concentration screen) was determined as 98.7%.

Turning to `CC/C=C\C/C=C\C/C=C\C/C=C\C/C=C\CCCC(=O)O` [Eicosapentaenoic acid], the remaining activity at 1.25 µM in assay [1] (Well no.=4251, low concentration screen) is 103%; in assay [1] (Well no.=4448, low concentration screen) it was 92.3%; in assay [1] (Well no.=7315, low concentration screen), 108%. In addition, the remaining activity at 3.75 µM in assay [2] (Well no.=4251, high concentration screen) is 101%; in assay [2] (Well no.=4448, high concentration screen), 96.1%; in assay [2] (Well no.=7315, high concentration screen), 103%.

For the molecule `Cn1c(=O)[nH]c2ncn(C)c2c1=O` [1,7-Dimethylxanthine], in assay [1] (Well no.=691, low concentration screen), the remaining activity at 1.25 µM was 98.6%. Moreover, the remaining activity at 3.75 µM in assay [2] (Well no.=691, high concentration screen) is 99.7%.

On to `Cc1nc(=O)c2cc(CN(C)c3ccc(C(=O)N[C@@H](CCC(=O)O)C(=O)O)s3)ccc2[nH]1` [Raltitrexed], for which the remaining activity at 1.25 µM worked out at 98.3% in assay [1] (Well no.=6308, low concentration screen) and 104% in assay [1] (Well no.=7452, low concentration screen). Also, the remaining activity at 3.75 µM in assay [2] (Well no.=6308, high concentration screen) stood at 99.3%; in assay [2] (Well no.=7452, high concentration screen), 99.7%.

In the case of `COCC1(CO)C(=O)C2CCN1CC2` (stereo not drawn) [PRIMA-1Met], the remaining activity at 1.25 µM in assay [1] (Well no.=6212, low concentration screen) was determined as 101%. In assay [2] (Well no.=6212, high concentration screen), the remaining activity at 3.75 µM amounted to 99.5%.

For the molecule `CCOc1cc(C(C)(C)C)ccc1C1=N[C@@](C)(c2ccc(Cl)cc2)[C@@](C)(c2ccc(Cl)cc2)N1C(=O)N1CCN(CC(=O)N2CCOCC2)CC1` [p53 and MDM2 proteins-interaction-inhibitor (dihydrochloride)], the remaining activity at 1.25 µM is 98.9% in assay [1] (Well no.=6832, low concentration screen) and 107% in assay [1] (Well no.=7702, low concentration screen). Moreover, the remaining activity at 3.75 µM was 94.5% in assay [2] (Well no.=6832, high concentration screen) and 106% in assay [2] (Well no.=7702, high concentration screen).

`N#Cc1ccc(N2N=C3c4ccc(C(=O)O)cc4CC[C@@H]3[C@@H]2C2CCCC2)cc1Cl` [PF-03882845]: the remaining activity at 1.25 µM in assay [1] (Well no.=6063, low concentration screen) worked out at 96.4%. Further, in assay [2] (Well no.=6063, high concentration screen), the remaining activity at 3.75 µM was determined as 94.4%.

Consider `CCN(CC)c1ncnc2c1ncn2[C@@H]1O[C@H](COP(=O)(O)OP(=O)(O)C(Br)(Br)P(=O)(O)O)[C@@H](O)[C@H]1O` [ARL 67156 trisodium salt], for which the remaining activity at 1.25 µM in assay [1] is 96%. In addition, the remaining activity at 3.75 µM in assay [2] worked out at 96.3%.

For `COC(=O)Nc1ccc(-c2nc(N3CCOCC3)c3cnn(C4CCN(Cc5cccnc5)CC4)c3n2)cc1` [WYE-687], in assay [1] (Well no.=4645, low concentration screen), the remaining activity at 1.25 µM is 104%. Besides, the remaining activity at 3.75 µM in assay [2] (Well no.=4645, high concentration screen) was 103%.

Take `Cc1nc(C(=O)N2CCC[C@H]2Cc2nnc(-c3ccccc3)o2)c(-c2ccccc2F)s1` [2-[((2S)-1-{[5-(2-fluorophenyl)-2-methyl-1,3-thiazol-4-yl]carbonyl}-2-pyrrolidinyl)methyl]-5-phenyl-1,3,4-oxadiazole]: in assay [1] (Well no.=5406, low concentration screen), the remaining activity at 1.25 µM was 90.5%. For the same molecule, in assay [2] (Well no.=5406, high concentration screen), the remaining activity at 3.75 µM is 102%.

As to `CCCOc1ccccc1-c1nc2[nH]nnc2c(=O)[nH]1` [Zaprinast], the remaining activity at 1.25 µM came to 99.6% in assay [1] (Well no.=1342, low concentration screen) and 92% in assay [1] (Well no.=2188, low concentration screen). The remaining activity at 3.75 µM stood at 101% in assay [2] (Well no.=1342, high concentration screen) and 95.6% in assay [2] (Well no.=2188, high concentration screen).

For the molecule `O=C(NNC(=O)c1ccc(CNS(=O)(=O)c2ccc(F)c(Cl)c2)cc1)c1ccccc1` [TCN-201], the remaining activity at 1.25 µM in assay [1] (Well no.=5514, low concentration screen) is 96.4%. Further, the remaining activity at 3.75 µM in assay [2] (Well no.=5514, high concentration screen) is 97.4%.

`COc1cc2/c(=N/c3ccc(Br)cc3F)nc[nH]c2cc1OCC1CCN(C)CC1` [Vandetanib]: the remaining activity at 1.25 µM in assay [1] (Well no.=2799, low concentration screen) was determined as 101%. In addition, the remaining activity at 3.75 µM in assay [2] (Well no.=2799, high concentration screen) is 101%.

On to `NCCCCC(=O)O` [5-Aminovaleric acid hydrochloride], for which, in assay [1] (Well no.=147, low concentration screen), the remaining activity at 1.25 µM was found to be 103%. In addition, in assay [2] (Well no.=147, high concentration screen), the remaining activity at 3.75 µM was 101%.

As for `CN(c1ncccc1CNc1nc(Nc2ccc3c(c2)CC(=O)N3)ncc1C(F)(F)F)S(C)(=O)=O` [PF-562271], the remaining activity at 1.25 µM in assay [1] (Well no.=2699, low concentration screen) was found to be 97.1%. The remaining activity at 3.75 µM in assay [2] (Well no.=2699, high concentration screen) is 100%.

On to `COc1cc(Nc2nc3ccccc3nc2NS(=O)(=O)c2ccc(NC(=O)c3ccc(C)c(OC)c3)cc2)cc(OC)c1` [PI3K-IN-1], for which the remaining activity at 1.25 µM in assay [1] (Well no.=8600, low concentration screen) turned out to be 102%. Further, the remaining activity at 3.75 µM in assay [2] (Well no.=8600, high concentration screen) came to 97.8%.

In the case of `CN1CC[C@@]2(C)c3cc(OC(=O)Nc4ccccc4)ccc3N(C)[C@@H]12` [Phenserine], in assay [1] (Well no.=6093, low concentration screen), the remaining activity at 1.25 µM was determined as 90.2%. In addition, the remaining activity at 3.75 µM in assay [2] (Well no.=6093, high concentration screen) was 89.8%.

With `O=C(O)Cc1ccccc1Nc1c(Cl)cccc1Cl` [Diclofenac Diethylamine], in assay [1] (Well no.=5309, low concentration screen), the remaining activity at 1.25 µM is 103%. In assay [2] (Well no.=5309, high concentration screen), the remaining activity at 3.75 µM came out at 98.6%.

As to `C[N+](C)(C)CCOP(=O)([O-])OC[C@H](O)CO` [sn-Glycero-3-phosphocholine], the remaining activity at 1.25 µM in assay [1] (Well no.=7303, low concentration screen) came out at 106%. Besides, the remaining activity at 3.75 µM in assay [2] (Well no.=7303, high concentration screen) stood at 106%.

Consider `CCN(CC)CCCC(C)Nc1c2ccc(Cl)cc2nc2ccc(OC)cc12` (stereo not drawn) [Quinacrine dihydrochloride], for which the remaining activity at 1.25 µM in assay [1] (Well no.=1173, low concentration screen) stood at 96.3%. In assay [2] (Well no.=1173, high concentration screen), the remaining activity at 3.75 µM stood at 98.3%.

As for `S=C(NCc1ccc2c(c1)OCO2)N1CCN(c2ncnc3c2oc2ccccc23)CC1` [MP-470], the remaining activity at 1.25 µM in assay [1] (Well no.=2745, low concentration screen) amounted to 103%. Moreover, the remaining activity at 3.75 µM in assay [2] (Well no.=2745, high concentration screen) is 104%.

Source of the values: publication PMC8286840, “Identifying SARS-CoV-2 antiviral compounds by screening for small molecule inhibitors of Nsp3 papain-like protease” (Biochemical Journal, 2021).
